According to US20240116985A1, “STAPLED PEPTIDES AND METHODS THEREOF” (priority 2020, published 2024):

Experiment: CHI Log D procedure
Format: physicochemical
Conditions: for CHI Log D: pH 7.4; for chromatographic logD: pH 7.4, CHI Log D

Row | CHI Log D | chromatographic logD | SMILES
1 | 2.2 | – | CC(=O)N1CCC[C@]12CC=CCCCC1(CCCC=CCCCCCC[C@@](C)(C(=O)N[C@@H](Cc3ccccc3)C(=O)N[C@@H](Cc3c[nH]c4ccccc34)C(=O)N[C@@H](CCC(N)=O)C(N)=O)NC(=O)[C@H](C(C)C)NC(=O)[C@H](Cc3ccccc3)NC(=O)[C@H](C)NC(=O)[C@H](C)NC(=O)[C@H](CC(=O)O)NC(=O)[C@H](CCC(=O)O)NC1=O)NC(=O)[C@H](C)NC(=O)[C@H](CC(=O)O)NC2=O (stereo partly drawn) [I-281, Ac-PL3-Asp-Ala-B5-Glu-Asp-Ala-Ala-Phe-Val-S8-Phe-Trp-Gln-NH2]
2 | 2.224 | – | CC(=O)N1CCC[C@]12CC=CCCCC1(CCCC=CCCCCCC[C@@](C)(C(=O)N[C@@H](Cc3ccccc3)C(=O)N[C@@H](Cc3c[nH]c4ccccc34)C(=O)N[C@@H](CCC(N)=O)C(N)=O)NC(=O)[C@H](C(C)C)NC(=O)[C@H](Cc3ccccc3)NC(=O)[C@H](C)NC(=O)[C@H](C)NC(=O)[C@H](CC(=O)O)NC(=O)[C@H](CCC(=O)O)NC1=O)NC(=O)[C@H](C)NC(=O)[C@H](CC(=O)O)NC2=O (stereo partly drawn) [I-282, Ac-PL3-Asp-Ala-B5-Glu-Asp-Ala-Ala-Phe-Val-S8-Phe-Trp-Gln-NH2]
3 | – | 2.82 | CC(=O)N1CCC[C@]12CC=CCCCC1(CCCC=CCCCCCC[C@@](C)(C(=O)N[C@@H](Cc3ccccc3)C(=O)N[C@@H](Cc3csc4ccccc34)C(=O)N[C@@H](CCC(N)=O)C(N)=O)NC(=O)[C@H](C(C)C)NC(=O)[C@H](Cc3ccccc3)NC(=O)[C@H](C)NC(=O)[C@H](C)NC(=O)[C@H](Cc3ccc4ccccc4n3)NC(=O)[C@H](CC(=O)O)NC1=O)NC(=O)[C@H](C)NC(=O)[C@H](CC(=O)O)NC2=O (stereo partly drawn) [I-300, Ac-PL3-Asp-Ala-B5-Asp-Qui-Ala-Ala-Phe-Val-S8-Phe-BztA-Gln-NH2]
4 | – | 3.26 | CC(=O)N1CCC[C@]12CC=CCCCC1(CCCC=CCCCCCC[C@@](C)(C(=O)N[C@@H](Cc3ccccc3)C(=O)N[C@@H](Cc3csc4ccccc34)C(=O)N[C@@H](CCC(N)=O)C(N)=O)NC(=O)[C@H](C(C)C)NC(=O)[C@H](Cc3ccccc3)NC(=O)[C@H](C)NC(=O)[C@H](C)NC(=O)[C@H](CCc3ccccc3)NC(=O)[C@H](CC(=O)O)NC1=O)NC(=O)[C@H](C)NC(=O)[C@H](CC(=O)O)NC2=O (stereo partly drawn) [I-301, Ac-PL3-Asp-Ala-B5-Asp-hPhe-Ala-Ala-Phe-Val-S8-Phe-BztA-Gln-NH2]
5 | – | 2.38 | CC(=O)N1CCC[C@]12CC=CCCCC1(CCCC=CCCCCCC[C@@](C)(C(=O)N[C@@H](Cc3c(F)c(F)c(F)c(F)c3F)C(=O)N[C@@H](Cc3csc4ccccc34)C(=O)N[C@@H](CCC(N)=O)C(N)=O)NC(=O)[C@H](C(C)C)NC(=O)[C@H](Cc3ccccc3)NC(=O)[C@H](C)NC(=O)[C@H](C)NC(=O)[C@H](CC(=O)O)NC(=O)[C@H](CC(=O)O)NC1=O)NC(=O)[C@H](C)NC(=O)[C@H](CC(=O)O)NC2=O (stereo partly drawn) [I-302, Ac-PL3-Asp-Ala-B5-Asp-Asp-Ala-Ala-Phe-Val-S8-pff-BztA-Gln-NH2]
6 | – | 3.13 | CC(=O)N1CCC[C@]12CC=CCCCC1(CCCC=CCCCCCC[C@@](C)(C(=O)N[C@@H](Cc3ccccc3)C(=O)N[C@@H](Cc3c[nH]c4ccccc34)C(=O)N[C@@H](CCC(N)=O)C(N)=O)NC(=O)[C@H](C(C)C)NC(=O)[C@H](Cc3ccccc3)NC(=O)[C@H](C)NC(=O)[C@H](C)NC(=O)[C@H](C(c3ccccc3)c3ccccc3)NC(=O)[C@H](CC(=O)O)NC1=O)NC(=O)[C@H](C)NC(=O)[C@H](CC(=O)O)NC2=O (stereo partly drawn) [I-303, Ac-PL3-Asp-Ala-B5-Asp-DipA-Ala-Ala-Phe-Val-S8-Phe-Trp-Gln-NH2]
7 | 2.339 | – | CC(=O)N1CCC[C@]12CC=CCCCC1(CCCC=CCCCCCC[C@@](C)(C(=O)N[C@@H](Cc3ccccc3)C(=O)N[C@@H](Cc3c[nH]c4ccccc34)C(=O)N[C@@H](CCC(N)=O)C(N)=O)NC(=O)[C@H](C(C)C)NC(=O)[C@H](Cc3ccccc3)NC(=O)[C@H](C)NC(=O)[C@H](C)NC(=O)[C@H](Cc3c[nH]cn3)NC(=O)[C@H](CC(=O)O)NC1=O)NC(=O)[C@H](C)NC(=O)[C@H](CC(=O)O)NC2=O (stereo partly drawn) [I-304, Ac-PL3-Asp-Ala-B5-Asp-His-Ala-Ala-Phe-Val-S8-Phe-Trp-Gln-NH2]
